Columns and labels:
[1] = molecular target: T1, 5-HT1A receptor (recombinant human membrane, HEK293 cells) (Homo sapiens, UniProt P08908); experiment: radioligand receptor binding assay, [3H]-8-OH-DPAT displacement; details: mean ± S.D.; 2 nM [3H]-8-OH-DPAT; assayed up to 100 or 30 μM
T1 construct: purchased Perkin Elmer Lot no; 1812363; host or cells: HEK293 cells
T1 sequence (P08908 1-422): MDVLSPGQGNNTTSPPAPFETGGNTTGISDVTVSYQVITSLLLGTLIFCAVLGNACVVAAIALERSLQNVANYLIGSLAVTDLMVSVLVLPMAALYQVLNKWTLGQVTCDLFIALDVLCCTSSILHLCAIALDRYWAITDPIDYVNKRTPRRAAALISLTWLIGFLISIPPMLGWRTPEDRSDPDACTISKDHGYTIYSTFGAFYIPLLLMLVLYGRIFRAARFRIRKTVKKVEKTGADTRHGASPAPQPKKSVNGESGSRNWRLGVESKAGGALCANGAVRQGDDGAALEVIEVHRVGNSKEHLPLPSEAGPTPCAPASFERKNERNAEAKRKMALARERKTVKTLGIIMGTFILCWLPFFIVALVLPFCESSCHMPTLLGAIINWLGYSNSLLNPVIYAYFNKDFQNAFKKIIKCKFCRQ
From the text: (§1) Recombinant human membrane preparations for M1 (expressed in CHO cells; Lot no. 1706299), 5-HT1A (HEK293 cells; no. 1812363), 5-HT2A (CHO cells; no. 1813092), D1 (L cells; no. 1840059), and D2S (CHO cells; no. 1820984) receptors and MicroScint-O scintillation cocktail were procured from Perkin Elmer (Waltham, MA, USA). [^3H] N-methylscopolamine (NMS), [^3H] 8-OH-DPAT, [^3H] ketanserin, [^3H] SCH 23390 and [^3H] methylspiperone were purchased from American Radiolabeled Chemicals (St. Louis, MO, USA). […] (DTNB) and donepezil hydrochloride were obtained from Sigma-Aldrich (St. Louis, MO, USA). Bacoside A, bacoside A3, bacopaside II, bacopaside X and bacopasaponin C were purchased from Chromadex Inc. (Irvine, CA, USA). Jujubogenin and ebelin lactone were purchased from Shanghai IS Chemical Technology Ltd. (Jinshan, Shanghai, China). Unless stated otherwise, all other reagents of analytical grade were obtained through standard commercial sources.
(§2) The assay was performed according to the methods published previously. […] Pseudojujubogenin and bacogenin A1 were not available for purchase at the time when the work was carried out. All compounds were dissolved in dimethylsulfoxide (DMSO) and the solvent was kept below 1% (v/v) in the final reaction mixture. Briefly, in each well, 100 μl of the respective membrane preparations (μg/well), 50 μl of the respective [^3H]-ligand and 50 μl of the test compounds were added and the total assay reaction volume was made up to 200 μl by adding assay buffer. […] The reaction mixture was incubated for 60 or 120 min at room temperature or 37°C for the respective membranes. The reaction was stopped by rapid filtration onto GF/C filter plates (presoaked in 0.5% polyethyleneimine) using FilterMate (Perkin Elmer) cell harvester and washed with wash buffer (200 μl for 5 times) to remove unbound ligands. The filter plates were dried at 60°C for 15 minutes before the application of Bottom Seal and addition of 50 μl MicroScint-O scintillation cocktail. The top of the plate was then sealed with TopSeal A. Radioactivity (CPM) was counted using TopCount NXT microplate scintillation counter (Perkin-Elmer). The data were analyzed by non-linear regression using Prism Version 5.0 (GraphPad Inc., San Diego CA, USA). The percentage of specific binding of radioligand in the presence of test compounds was calculated using the standard data reduction algorithm: ([B-NSB] / [TB-NSB]) × 100) where B is the binding in the presence of test compounds, NSB is the non-specific binding in the presence of excess reference ligand and TB is the total binding. K i values were calculated from the IC50 values using the Cheng-Prusoff equation [26].

[2] = molecular target: T2, M1 receptor (recombinant human membrane, CHO cells) (Homo sapiens, UniProt P11229); experiment: radioligand receptor binding assay, [3H]-NMS displacement; details: for IC50: mean ± S.D., 0.1 nM [3H]-NMS, assayed up to 100 or 30 μM
T2 construct: purchased Perkin Elmer Lot no; 1706299; host or cells: CHO cells
T2 sequence (P11229 1-460): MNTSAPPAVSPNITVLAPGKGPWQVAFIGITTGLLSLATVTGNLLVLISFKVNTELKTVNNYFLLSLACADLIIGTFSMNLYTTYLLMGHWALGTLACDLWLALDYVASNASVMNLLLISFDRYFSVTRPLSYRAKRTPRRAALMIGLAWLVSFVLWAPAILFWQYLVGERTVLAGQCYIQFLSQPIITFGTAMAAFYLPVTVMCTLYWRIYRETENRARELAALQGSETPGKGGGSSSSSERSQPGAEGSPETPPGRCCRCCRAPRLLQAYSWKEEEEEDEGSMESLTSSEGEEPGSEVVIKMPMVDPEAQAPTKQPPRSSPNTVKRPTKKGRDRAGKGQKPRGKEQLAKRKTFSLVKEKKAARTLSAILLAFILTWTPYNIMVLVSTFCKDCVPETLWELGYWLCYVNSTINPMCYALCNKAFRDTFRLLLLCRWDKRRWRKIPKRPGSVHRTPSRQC
From the text: as §1, §2

[3] = molecular target: T3, 5-HT2A receptor (recombinant human membrane, CHO cells) (Homo sapiens, UniProt P28223); experiment: radioligand receptor binding assay, [3H]-ketanserin displacement; details: for IC50: mean ± S.D., 1 nM [3H]-ketanserin, assayed up to 100 or 30 μM
T3 construct: purchased Perkin Elmer Lot no; 1813092; host or cells: CHO cells
T3 sequence (P28223 whole entry): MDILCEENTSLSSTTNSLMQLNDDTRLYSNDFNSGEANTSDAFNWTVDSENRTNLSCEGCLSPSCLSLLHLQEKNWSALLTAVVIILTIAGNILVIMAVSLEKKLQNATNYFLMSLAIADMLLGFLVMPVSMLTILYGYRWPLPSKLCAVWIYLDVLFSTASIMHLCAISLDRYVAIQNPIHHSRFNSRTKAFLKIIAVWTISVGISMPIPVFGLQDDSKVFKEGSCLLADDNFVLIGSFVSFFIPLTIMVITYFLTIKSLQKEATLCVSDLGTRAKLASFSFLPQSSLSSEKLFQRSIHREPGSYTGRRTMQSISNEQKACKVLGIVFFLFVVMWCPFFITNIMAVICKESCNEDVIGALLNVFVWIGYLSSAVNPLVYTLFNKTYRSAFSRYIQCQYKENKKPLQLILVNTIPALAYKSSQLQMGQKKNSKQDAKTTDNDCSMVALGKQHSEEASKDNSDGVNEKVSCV
From the text: as §1, §2

[4] = molecular target: T4, D1 receptor (recombinant human membrane, L cells) (Homo sapiens, UniProt P21728); experiment: radioligand receptor binding assay, [3H]-SCH 23390 displacement; details: for IC50: mean ± S.D., 0.2 nM [3H]-SCH 23390, assayed up to 100 or 30 μM
T4 construct: purchased Perkin Elmer Lot no; 1840059; host or cells: L cells
T4 sequence (P21728 whole entry): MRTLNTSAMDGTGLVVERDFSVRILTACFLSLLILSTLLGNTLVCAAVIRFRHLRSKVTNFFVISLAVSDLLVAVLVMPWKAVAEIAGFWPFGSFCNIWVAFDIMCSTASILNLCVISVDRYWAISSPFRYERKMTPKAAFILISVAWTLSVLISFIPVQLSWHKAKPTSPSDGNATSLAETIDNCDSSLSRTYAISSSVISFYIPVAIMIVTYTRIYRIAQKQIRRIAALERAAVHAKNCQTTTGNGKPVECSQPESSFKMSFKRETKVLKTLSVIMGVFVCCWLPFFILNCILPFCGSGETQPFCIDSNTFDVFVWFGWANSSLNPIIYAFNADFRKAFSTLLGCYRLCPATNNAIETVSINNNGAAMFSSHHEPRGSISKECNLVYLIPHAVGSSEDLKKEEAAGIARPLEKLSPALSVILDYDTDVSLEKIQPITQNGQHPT
From the text: as §1, §2

[5] = molecular target: T5, D2S receptor (recombinant human membrane, CHO cells) (Homo sapiens, UniProt P14416); experiment: radioligand receptor binding assay, [3H]-methylspiperone displacement; details: mean ± S.D.; 0.2 nM [3H]-methylspiperone; assayed up to 100 or 30 μM; read-out: IC50 D2
T5 construct: purchased Perkin Elmer Lot no; 1820984; host or cells: CHO cells
T5 sequence (P14416 1-414 isoform P14416-2): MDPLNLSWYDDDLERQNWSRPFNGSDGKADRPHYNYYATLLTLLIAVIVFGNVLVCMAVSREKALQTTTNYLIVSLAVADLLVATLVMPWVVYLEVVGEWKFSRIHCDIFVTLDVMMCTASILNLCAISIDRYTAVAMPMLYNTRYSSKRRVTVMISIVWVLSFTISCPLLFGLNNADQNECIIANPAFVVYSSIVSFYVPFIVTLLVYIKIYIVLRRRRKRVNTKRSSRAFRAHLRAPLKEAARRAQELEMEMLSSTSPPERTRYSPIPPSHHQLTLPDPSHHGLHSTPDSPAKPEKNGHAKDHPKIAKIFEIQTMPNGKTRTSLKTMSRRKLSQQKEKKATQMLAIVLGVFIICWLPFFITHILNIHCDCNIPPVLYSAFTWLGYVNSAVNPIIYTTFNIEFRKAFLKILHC
From the text: as §1, §2

M1 = molecular target: M1; parameters: method as in PMID 24979399; details: M1 agonists; cited from earlier work
[6] = from IC50 by Cheng-Prusoff equation

Structure (SMILES) | IC50 [1] [µM] | IC50 [2] [µM] | IC50 [3] [µM] | IC50 [4] [µM] | IC50 [5] [µM] | Ki [4, 6] [µM] | Ki [2, 6] [µM] | Ki [3, 6] [µM] | Ki (M1) [µM]
CC(C)=C[C@@H]1CO[C@]23C[C@]4(CO2)[C@H](CC[C@@H]2[C@@]5(C)CC[C@H](O[C@@H]6OC[C@H](O)[C@H](O[C@@H]7O[C@H](CO)[C@@H](O)[C@H](O)[C@H]7O)[C@H]6O[C@@H]6O[C@@H](CO)[C@H](O)[C@H]6O)C(C)(C)[C@@H]5CC[C@]24C)[C@H]3[C@@]1(C)O [Bacopasaponin C, bacopasaponin C] | > 100 | > 100 | > 100 | > 100 | > 100 |  |  |  | 
CC(C)=CC1COC23CC4(CO2)C(CCC2C5(C)CCC(OC6OC(CO)C(O)C(OC7OC(CO)C(O)C(O)C7O)C6OC6OC(CO)C(O)C6O)C(C)(C)C5CCC24C)C3C1(C)O (stereo not shown) [Bacopaside II, bacopaside II] | > 30 | > 30 | > 30 | > 30 | > 30 |  |  |  | 
CC(C)=C[C@H]1C[C@](C)(O)[C@@H]2[C@H]3CC[C@@H]4[C@@]5(C)CC[C@H](O[C@@H]6OC[C@H](O)[C@H](O[C@@H]7O[C@H](CO)[C@@H](O)[C@H](O)[C@H]7O)[C@H]6O[C@@H]6O[C@@H](CO)[C@H](O)[C@H]6O)C(C)(C)[C@@H]5CC[C@@]4(C)[C@@]34CO[C@@]2(C4)O1 [Bacopaside X, bacopaside X] | > 100 | > 100 | > 100 | 19.5 ± 3.07 | > 100 | 9.06 |  |  | 
CC(C)=C[C@H]1C[C@](C)(O)[C@@H]2[C@H]3CC[C@@H]4[C@@]5(C)CC[C@H](O[C@@H]6O[C@H](CO)[C@@H](O)[C@H](O[C@@H]7O[C@H](CO)[C@@H](O)[C@H](O)[C@H]7O)[C@H]6O[C@@H]6O[C@@H](CO)[C@H](O)[C@H]6O)C(C)(C)[C@@H]5CC[C@@]4(C)[C@@]34CO[C@@]2(C4)O1 [Bacoside A3, bacoside A3] | > 100 | > 100 | > 100 | > 100 | > 100 |  |  |  | 
CC(C)=CC=CC(C)=CC1CCC2C3(C)CCC(O)C(C)(C)C3CCC2(C)C12COC(=O)C2 (stereo not shown) [Ebelin Lactone, ebelin lactone] | > 30 | 0.8 ± 0.19 | 14.5 ± 4.98 | > 30 | > 30 |  | 0.45 | 4.21 | 
CC(C)=CC1CC(C)(O)C2C3CCC4C5(C)CCC(O)C(C)(C)C5CCC4(C)C34COC2(C4)O1 (stereo not shown) [Jujubogenin, jujubogenin] | > 30 | > 30 | > 30 | > 30 | > 30 |  |  |  | 
CC(=O)OCC[N+](C)(C)C [acetylcholine] |  |  |  |  |  |  |  |  | 59

Reference: publication PMC4428790, “In Silico and In Vitro Analysis of Bacoside A Aglycones and Its Derivatives as the Constituents Responsible for the Cognitive Effects of Bacopa monnieri” (PLoS ONE, 2015)
